Data on 14 compounds can be found in patent publication US10246426B2, “Triazole compounds as T-type calcium channel blockers” (IDORSIA PHARMACEUTICALS LTD, priority 2014, dated 2019).

For this test, the target named is Cav3.2 (Homo sapiens, UniProt O95180). Kind of test: Calcium flux FLIPR assay, HEK293 cells recombinantly expressing Cav3.2. Particulars: Cav3.2-channel, Ca2+ entry stimulated by 10 mM CaCl2. Format: cell-based. The gist of the method: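 Fluo-4-loaded HEK293 cells stably expressing Cav3.2, seeded overnight at 37 °C; compounds diluted in TEAC buffer (pH 7.2) and preincubated 3 min before Ca2+ entry triggered with CaCl2 at 10 mM final. Area under FLIPR fluorescence trace fitted sigmoidally; IC50 relative to vehicle signal.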
Cav3.2, sequence (O95180 whole entry, looked up): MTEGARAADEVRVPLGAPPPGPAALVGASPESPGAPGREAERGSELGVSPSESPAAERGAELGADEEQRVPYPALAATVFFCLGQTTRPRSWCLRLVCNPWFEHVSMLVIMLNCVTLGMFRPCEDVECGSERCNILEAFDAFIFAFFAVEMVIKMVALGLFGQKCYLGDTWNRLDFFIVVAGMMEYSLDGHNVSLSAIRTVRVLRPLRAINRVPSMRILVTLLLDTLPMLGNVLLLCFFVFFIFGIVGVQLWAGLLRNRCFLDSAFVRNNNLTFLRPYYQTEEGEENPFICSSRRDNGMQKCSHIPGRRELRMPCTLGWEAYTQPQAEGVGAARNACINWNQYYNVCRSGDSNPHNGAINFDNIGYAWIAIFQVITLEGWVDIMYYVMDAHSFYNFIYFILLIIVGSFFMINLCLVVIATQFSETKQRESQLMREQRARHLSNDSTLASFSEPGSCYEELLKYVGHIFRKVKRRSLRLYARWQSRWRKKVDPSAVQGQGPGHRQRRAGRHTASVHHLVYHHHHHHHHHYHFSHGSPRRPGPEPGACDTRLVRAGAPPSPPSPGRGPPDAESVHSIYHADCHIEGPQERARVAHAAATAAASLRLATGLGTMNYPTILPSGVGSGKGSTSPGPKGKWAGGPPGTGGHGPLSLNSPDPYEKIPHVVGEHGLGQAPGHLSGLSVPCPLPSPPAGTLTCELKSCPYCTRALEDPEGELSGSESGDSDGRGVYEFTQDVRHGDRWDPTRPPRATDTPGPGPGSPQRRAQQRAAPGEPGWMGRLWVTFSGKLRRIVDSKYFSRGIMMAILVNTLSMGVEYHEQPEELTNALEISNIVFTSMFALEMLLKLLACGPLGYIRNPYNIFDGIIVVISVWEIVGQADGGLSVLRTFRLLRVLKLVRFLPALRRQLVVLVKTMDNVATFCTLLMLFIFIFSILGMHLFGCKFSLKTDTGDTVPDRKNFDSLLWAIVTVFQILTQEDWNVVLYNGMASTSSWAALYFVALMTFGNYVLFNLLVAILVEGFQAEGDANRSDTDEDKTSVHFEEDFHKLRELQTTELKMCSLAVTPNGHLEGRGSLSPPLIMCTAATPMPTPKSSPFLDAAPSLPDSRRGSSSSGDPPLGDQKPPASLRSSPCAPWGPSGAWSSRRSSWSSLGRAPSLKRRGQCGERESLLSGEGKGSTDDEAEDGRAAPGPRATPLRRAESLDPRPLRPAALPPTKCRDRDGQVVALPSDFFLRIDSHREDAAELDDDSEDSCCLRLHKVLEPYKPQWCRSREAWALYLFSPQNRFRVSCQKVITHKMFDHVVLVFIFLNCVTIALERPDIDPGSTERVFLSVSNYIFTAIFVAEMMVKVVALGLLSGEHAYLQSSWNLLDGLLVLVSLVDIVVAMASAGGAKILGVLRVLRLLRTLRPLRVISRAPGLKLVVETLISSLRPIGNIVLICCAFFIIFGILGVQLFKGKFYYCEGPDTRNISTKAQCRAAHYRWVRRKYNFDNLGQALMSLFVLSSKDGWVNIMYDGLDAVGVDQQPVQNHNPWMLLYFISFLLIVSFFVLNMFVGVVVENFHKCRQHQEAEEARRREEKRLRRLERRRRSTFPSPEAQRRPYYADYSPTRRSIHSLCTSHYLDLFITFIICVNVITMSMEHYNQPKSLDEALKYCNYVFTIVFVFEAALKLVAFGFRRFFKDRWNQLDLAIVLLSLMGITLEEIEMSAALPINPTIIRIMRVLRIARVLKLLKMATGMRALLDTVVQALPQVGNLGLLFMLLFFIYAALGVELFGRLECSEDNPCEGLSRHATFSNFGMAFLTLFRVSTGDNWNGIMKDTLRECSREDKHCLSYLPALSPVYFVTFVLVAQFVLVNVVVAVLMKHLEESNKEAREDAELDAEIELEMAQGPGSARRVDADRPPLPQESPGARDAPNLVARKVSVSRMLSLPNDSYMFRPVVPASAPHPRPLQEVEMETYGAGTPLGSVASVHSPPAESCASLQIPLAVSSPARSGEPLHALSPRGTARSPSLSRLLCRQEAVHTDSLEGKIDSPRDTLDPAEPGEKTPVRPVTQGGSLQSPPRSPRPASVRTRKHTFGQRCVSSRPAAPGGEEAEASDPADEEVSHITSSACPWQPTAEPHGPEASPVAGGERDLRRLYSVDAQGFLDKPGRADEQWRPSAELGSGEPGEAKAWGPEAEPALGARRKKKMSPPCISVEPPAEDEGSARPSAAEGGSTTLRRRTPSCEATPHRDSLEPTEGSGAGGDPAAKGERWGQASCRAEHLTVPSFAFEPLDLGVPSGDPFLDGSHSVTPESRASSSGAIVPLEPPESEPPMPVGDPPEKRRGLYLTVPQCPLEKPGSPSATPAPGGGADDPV
Background: A change in cytosolic calcium serves as a functional read-out for many receptors and channels.

As to `COc1cc(Cn2ncc(NC(=O)Cc3ccc(C4(C(F)(F)F)CC4)cc3)n2)ccc1F` [Example 113, N-[2-(4-Fluoro-3-methoxy-benzyl)-2H-[1,2,3]triazol-4-yl]-2-[4-(1-trifluoromethyl-cyclopropyl)-phenyl]-acetamide], the IC50 is 230 nM.

For the compound `COc1cc(Cn2ncc(NC(=O)Cc3ccc(OC4CC(F)(F)C4)cc3)n2)ccc1F` [Example 114], the concentration for half-maximal inhibition (IC50) was found to be 73 nM.

`COc1cc(Cn2ncc(NC(=O)Cc3ccc(N4CCC(F)(F)C4)nc3)n2)ccc1F` [Example 115, 2-[6-(3,3-Difluoro-pyrrolidin-1-yl)-pyridin-3-yl]-N-[2-(4-fluoro-3-methoxy-benzyl)-2H-[1,2,3]triazol-4-yl]-acetamide]: the half-inhibitory concentration (IC50) stood at 45 nM.

Turning to `COc1cc(Cn2ncc(NC(=O)Cc3ccc(C4(F)COC4)cc3)n2)ccc1F` [Example 116, N-[2-(4-Fluoro-3-methoxy-benzyl)-2H-[1,2,3]triazol-4-yl]-2-[4-(3-fluoro-oxetan-3-yl)-phenyl]-acetamide], the IC50 is 140 nM.

`CCn1ncc2cc(CC(=O)Nc3cnn(Cc4ccc(F)c(OC)c4)n3)ccc21` [Example 117, 2-(1-Ethyl-1H-indazol-5-yl)-N-[2-(4-fluoro-3-methoxy-benzyl)-2H-[1,2,3]triazol-4-yl]-acetamide]: the IC50 is 80 nM.

With `COc1cc(Cn2ncc(NC(=O)Cc3ccc4c(c3)c(C)cn4C)n2)ccc1F` [Example 118, 2-(1,3-Dimethyl-1H-indol-5-yl)-N-[2-(4-fluoro-3-methoxy-benzyl)-2H-[1,2,3]triazol-4-yl]-acetamide], the IC50 was found to be 63 nM.

As for `COc1cc(Cn2ncc(NC(=O)Cc3ccc(C(C)(C)C)cc3)n2)ccc1F` [Example 119, 2-(4-tert-Butyl-phenyl)-N-[2-(4-fluoro-3-methoxy-benzyl)-2H-[1,2,3]triazol-4-yl]-acetamide], the IC50 is 62 nM.

For `COc1ccc(Cn2ncc(NC(=O)Cc3ccc(OCC4COC4)cc3)n2)cc1F` [Example 120, N-[2-(3-Fluoro-4-methoxy-benzyl)-2H-[1,2,3]triazol-4-yl]-2-[4-(oxetan-3-ylmethoxy)-phenyl]-acetamide], the half-maximal inhibitory concentration (IC50) is 550 nM.

As to `COc1ccc(Cn2ncc(NC(=O)Cc3ccc4cnn(C)c4c3)n2)cc1F` [Example 121, N-[2-(3-Fluoro-4-methoxy-benzyl)-2H-[1,2,3]triazol-4-yl]-2-(1-methyl-1H-indazol-6-yl)-acetamide], the concentration for half-maximal inhibition (IC50) stood at 290 nM.

Turning to `COc1ccc(Cn2ncc(NC(=O)Cc3ccc(C4(OC)COC4)cc3)n2)cc1F` [Example 122, N-[2-(3-Fluoro-4-methoxy-benzyl)-2H-[1,2,3]triazol-4-yl]-2-[4-(3-methoxy-oxetan-3-yl)-phenyl]-acetamide], the IC50 amounted to 360 nM.

As for `COc1ccc(Cn2ncc(NC(=O)Cc3ccc(OCC4(C)COC4)cc3)n2)cc1F` [Example 123, N-[2-(3-Fluoro-4-methoxy-benzyl)-2H-[1,2,3]triazol-4-yl]-2-[4-(3-methyl-oxetan-3-ylmethoxy)-phenyl]-acetamide], the IC50 worked out at 870 nM.

As to `COc1ccc(Cn2ncc(NC(=O)Cc3ccc(C4(C(F)(F)F)CC4)cc3)n2)cc1F` [Example 124, N-[2-(3-Fluoro-4-methoxy-benzyl)-2H-[1,2,3]triazol-4-yl]-2-[4-(1-trifluoromethyl-cyclopropyl)-phenyl]-acetamide], the half-inhibitory concentration (IC50) is 250 nM.

Regarding `COc1ccc(Cn2ncc(NC(=O)Cc3ccc(OC4CC(F)(F)C4)cc3)n2)cc1F` [Example 125, 2-[4-(3,3-Difluoro-cyclobutoxy)-phenyl]-N-[2-(3-fluoro-4-methoxy-benzyl)-2H-[1,2,3]triazol-4-yl]-acetamide], the half-inhibitory concentration (IC50) is 180 nM.

For `COc1ccc(Cn2ncc(NC(=O)Cc3ccc(N4CCC(F)(F)C4)nc3)n2)cc1F` [Example 126, 2-[6-(3,3-Difluoro-pyrrolidin-1-yl)-pyridin-3-yl]-N-[2-(3-fluoro-4-methoxy-benzyl)-2H-[1,2,3]triazol-4-yl]-acetamide], the IC50 is 47 nM.

The IC50 is the concentration at which inhibition is half-maximal.
